Reference: article PMC4331264 (Biochimica et biophysica acta, 2015)
Where two headings read alike, the source gives them in different places.

Legend:
Ste2p [1] = conditions: cited from earlier work
[2] = test system: Saccharomyces cerevisiae LM102 cells expressing Ste2p-FT-HT; assay: Growth arrest; format: cell-based; conditions: for growth arrest activity of peptide alone: peptide alone 15 μg/disk, no α-factor; for halo (zone of growth inhibition) area on co-spotting with α-factor: α-factor 0.1 μg/disk plus peptide 15 μg/disk, three replicates; for halo area in presence of novobiocin: novobiocin 2.2 mg/4.5 ml Noble agar-cell mixture
[3] = test system: Ste2p-FT-HT signalling in LM102 cells (FUS1-lacZ); assay: FUS1-lacZ reporter gene assay; format: cell-based, Saccharomyces cerevisiae; conditions: for FUS1-lacZ reporter gene activity of peptide alone: peptide alone (30 μM), absence of α-factor; for increase in FUS1-lacZ reporter gene activity over α-factor alone: α-factor 50 nM plus peptide 30 μM, 90 min, 30°C, mean of three determinations
Ste2p-FT-HT [4] = target: T1, Ste2p-FT-HT (Saccharomyces cerevisiae, UniProt D6VTK4, C252S/C59S); format: binding; conditions: read-out: cross-linking of [Bio-DOPA]13-mer, % of control, novobiocin 5 mM, [Bio-DOPA]13-mer 10 μM
T1 sequence (D6VTK4 whole entry C59S/C252S): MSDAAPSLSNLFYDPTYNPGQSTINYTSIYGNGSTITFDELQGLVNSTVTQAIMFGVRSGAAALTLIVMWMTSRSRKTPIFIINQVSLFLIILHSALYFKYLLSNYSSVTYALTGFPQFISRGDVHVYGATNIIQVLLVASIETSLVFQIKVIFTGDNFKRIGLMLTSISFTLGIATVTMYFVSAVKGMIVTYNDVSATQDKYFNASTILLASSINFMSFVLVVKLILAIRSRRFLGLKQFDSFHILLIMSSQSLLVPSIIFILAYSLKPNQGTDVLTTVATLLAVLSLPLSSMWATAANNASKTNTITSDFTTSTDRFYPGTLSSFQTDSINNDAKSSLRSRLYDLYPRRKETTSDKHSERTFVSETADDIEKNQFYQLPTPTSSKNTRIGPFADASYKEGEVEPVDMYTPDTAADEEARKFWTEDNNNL

Ste2p-FT-HT [5] = target: T1, Ste2p-FT-HT; format: binding; conditions: [3H]α-factor 5 nM; novobiocin 10^−4 M to 10^−11 M; 30 min on ice
Ste2p-FT-HT [6] = target: T1, Ste2p-FT-HT; format: binding; conditions: [Bio-DOPA]11-mer 85 μM
Ste2p [7] = conditions: cited from earlier work; remark: listed apart in the source

[DOPA^1, K^7 (BiotinACA)] α-factor [[Bio-DOPA]13-mer]
biological activity (Ste2p [1]; binds the orthosteric site of the receptor): retains biological activity

DOPA-HWLQLK(BiotinACA)PGQP [[Bio-DOPA]11-mer, [DOPA^1, K^7 (BiotinACA),desM^12desY^13] α-factor]
growth arrest activity of peptide alone [2]: no intrinsic biological activity
halo (zone of growth inhibition) area on co-spotting with α-factor [2]: 309 ± 27 mm^2
FUS1-lacZ reporter gene activity of peptide alone [3]: no intrinsic biological activity
increase in FUS1-lacZ reporter gene activity over α-factor alone [3]: approximately 2 fold

CO[C@@H]1[C@@H](OC(N)=O)[C@@H](O)[C@H](Oc2ccc3c(O)c(NC(=O)c4ccc(O)c(CC=C(C)C)c4)c(=O)oc3c2C)OC1(C)C [novobiocin]
intrinsic agonistic activity in growth arrest assay ([2]; novobiocin by itself, up to 2.2 mg/disk): no measurable, intrinsic agonistic activity
increase of halo area in presence of novobiocin, without paper disk ([2]; α-factor 10 ng spotted directly onto lawn containing novobiocin 2.2 mg/lawn): 45%
halo area in presence of novobiocin ([2]; α-factor 0.1 μg/disk): 155 ± 24 mm^2
halo area in presence of novobiocin ([2]; α-factor 0.2 μg/disk): 273 ± 14 mm^2
remaining activity at 5000 µM (Ste2p-FT-HT [4]; average over 3 replicate blots): 118%
remaining activity at 5000 µM (Ste2p-FT-HT [4]; blot in Fig. 5): 136%
agonistic activity in growth arrest assays (Ste2p [1]; S. cerevisiae strain supersensitive to α-factor): weak agonistic activity
competition with [3H]α-factor for binding to Ste2p-FT-HT (Ste2p-FT-HT [5]): did not prevent α-factor binding to the receptor
FUS1-lacZ response to novobiocin in presence of α-factor ([3]; 25 nM α-factor, repeated three times): dose-dependent increase in activity up to 12.5 μM
FUS1-lacZ reporter gene activity, novobiocin by itself ([3]; no α-factor, concentrations up to 37.5 μM): failed to increase reporter gene activity
FUS1-lacZ reporter gene activity, novobiocin by itself, higher amounts ([3]; no α-factor, up to 400 μM, data not shown): failed to stimulate reporter gene activity
maximal inhibition of [Bio-DOPA]11-mer cross-linking (Ste2p-FT-HT [6]; between 10 and 50 mM novobiocin, Fig. 6): ~ 90%
remaining activity at 5000 µM (Ste2p-FT-HT [6]; read-out: labeling (cross-linking of [Bio-DOPA]11-mer), % of control level, novobiocin 5 mM, average over 3 replicate blots): 26%

WHWLQLKPGQP [11-mer]
growth arrest activity of peptide alone [2]: no biological activity
halo (zone of growth inhibition) area on co-spotting with α-factor [2]: 382 ± 36 mm^2
innate biological activity (Ste2p [1]; wild-type yeast strain): no innate biological activity
agonist activity in supersensitive mutant (Ste2p [1]; yeast mutant supersensitive to the ligand): very weak agonist
competition for binding with α-factor (Ste2p [7]): did not compete for binding with α-factor
influence on affinity of the receptor for α-factor (Ste2p [7]; wild-type yeast strain): did not influence the affinity of the receptor for the ligand
FUS1-lacZ reporter gene activity of peptide alone [3]: did not stimulate reporter gene activity over control levels
increase in FUS1-lacZ reporter gene activity over α-factor alone [3]: 2.5 fold
